# Measured values as given in patent US12697326B2, “Methods of treating hepatic encephalopathy” (SALIX PHARMACEUTICALS, INC., priority 2008, dated 2026).
# Key:
# [1] = tested on: Conn score in subjects with HE; experiment: Level of change from baseline in Conn score by treatment group, first study; type: in vivo, human; details: 550 mg BID, Baseline to EOT
# Text: The scale used in the Conn scoring system is provided below. • Grade 0=No personality or behavioral abnormality detected • Grade 1=Trivial lack of awareness, euphoria or anxiety; shortened attention span; impairment of addition or subtraction • Grade 2=Lethargy; disorientation for time; obvious personality change; inappropriate behavior • Grade 3=Somnolence to semi-stupor, responsive to stimuli; confused; gross disorientation; bizarre behavior • Grade 4=Coma; unable to test mental state
# Change in mental status was measured by the Conn score (also known as the West Haven score). The Conn score has been widely used as a measure of mental state in HE studies and is based on the criteria of Parsons-Smith as modified by Conn. The scale used in the Conn scoring system is described above.
# [2] = tested on: asterixis grade in subjects with HE; experiment: Level of change from baseline in asterixis grade by treatment group, first study; type: in vivo, human; details: 550 mg BID, Baseline to EOT
# Procedure: Asterixis (flapping tremor) was determined with the subject holding both arms and forearms extended with wrists dorsiflexed and fingers open for ≥30 seconds. Asterixis was measured on a continuum of 5 grades, e.g., grades 0 and 4=no abnormal movement vs. almost continuous flapping motions, respectively as shown below: • Grade 0=No tremors; • Grade 1=Rare flapping motions; • Grade 2=Occasional, irregular flaps; • Grade 3=Frequent flaps; and • Grade 4=Almost continuous flapping motions.
# [3] = tested on: Epworth Sleepiness Scale in subjects with HE; experiment: Epworth Sleepiness Scale total score; type: in vivo, human; details: 550 mg BID
# Text: Total scores for the Epworth Sleepiness Scale were computed and summarized at baseline and Days 28, 56, 84, 112, 140 and 168 using descriptive statistics. Treatment differences for mean change in total scores from baseline to Days 28, 56, 84, 112, 140 and 168 were summarized and compared between treatments.
# subjects with HE [4] = experiment: Treatment-emergent adverse events, first study; type: in vivo, human; details: rifaximin group
# Text: A total of 79.9% of subjects (239 of 299) experienced TEAEs during the course of the study.
# [5] = tested on: Conn score and asterixis grade in subjects with HE; experiment: Changes from baseline in Conn scores and asterixis grades, second study; type: in vivo, human
# Text: Normalizing for subject exposure, this represents a hospitalization rate of 0.60 event/PEY. A total of 59 were hospitalized due HE episodes (e.g., HE-caused). Normalizing for subject exposure, this represents an HE-caused hospitalization rate of 0.29 event/PEY. […] All subjects were capable of worsening over time, and 24/266 subjects (9.0%) did so by 1 or 2 grades.
# The last visit for the second study is the last visit recorded for the interim analysis.
# subjects with HE [6] = experiment: Treatment-emergent adverse events, second study; type: in vivo, human
# Text: At the time of this interim analysis, TEAEs were reported in 230 subjects (86.5%). The most common TEAEs (e.g., in ≥10% of total subjects) experienced by subjects were the following: peripheral edema (15.8%); urinary tract infection and nausea (12.8% each); and abdominal pain and ascites (10.5% each).
# Treatment-emergent SAEs were experienced by 47.4% of subjects.
# patients with HE [7] = experiment: Retrospective chart review of 145 patients with HE, lactulose then rifaximin; type: in vivo, human
# Text: Total number of hospitalizations, duration of hospitalizations, HE endpoints, and cost of therapy were compared between the 2 treatment regimens.
# patients with HE [8] = details: 6-month study; rifaximin 1200 mg/day, neomycin 3 g/day; 14 days on, 14 days off per month; cited from earlier work
# in vitro = details: human, in vivo
compound,measurement,setting,value
CO[C@H]1/C=C/O[C@@]2(C)Oc3c(C)c(O)c4c(O)c(c5c(nc6cc(C)ccn65)c4c3C2=O)NC(=O)/C(C)=C\C=C\[C@H](C)[C@H](O)[C@@H](C)[C@@H](O)[C@@H](C)[C@H](OC(C)=O)[C@@H]1C [Rifaximin],"Change from baseline in Conn score, Max",[1],2
same,"Change from baseline in Conn score, Mean",[1],−0.1
same,"Change from baseline in Conn score, Median",[1],0.0
same,"Change from baseline in Conn score, Min",[1],−1
same,Number of subjects with change from baseline in Conn score of 0,[1]; n = 139,101
same,Number of subjects with change from baseline in Conn score of 1,[1]; n = 139,10
same,Number of subjects with change from baseline in Conn score of 2,[1]; n = 139,2
same,Number of subjects with change from baseline in Conn score of 3,[1]; n = 139,0
same,Number of subjects with change from baseline in Conn score of −1,[1]; n = 139,26
same,Percent of subjects with change from baseline in Conn score of 0,[1]; n = 139,72.7%
same,Percent of subjects with change from baseline in Conn score of 1,[1]; n = 139,7.2%
same,Percent of subjects with change from baseline in Conn score of 2,[1]; n = 139,1.4%
same,"Change from baseline in asterixis grade, Max",[2],2
same,"Change from baseline in asterixis grade, Mean",[2],0.0
same,"Change from baseline in asterixis grade, Median",[2],0.0
same,"Change from baseline in asterixis grade, Min",[2],−2
same,Number of subjects with change from baseline in asterixis grade of 0,[2]; n = 139,108
same,Number of subjects with change from baseline in asterixis grade of 1,[2]; n = 139,10
same,Number of subjects with change from baseline in asterixis grade of 2,[2]; n = 139,2
same,Number of subjects with change from baseline in asterixis grade of 3,[2]; n = 139,0
same,Number of subjects with change from baseline in asterixis grade of 4,[2]; n = 139,0
same,Number of subjects with change from baseline in asterixis grade of −1,[2]; n = 139,18
same,Number of subjects with change from baseline in asterixis grade of −2,[2]; n = 139,1
same,Percent of subjects with change from baseline in asterixis grade of 0,[2]; n = 139,77.7%
same,Percent of subjects with change from baseline in asterixis grade of 1,[2]; n = 139,7.2%
same,Percent of subjects with change from baseline in asterixis grade of 2,[2]; n = 139,1.4%
same,Percent of subjects with change from baseline in asterixis grade of −1,[2]; n = 139,12.9%
same,Percent of subjects with change from baseline in asterixis grade of −2,[2]; n = 139,0.7%
same,"Change from Baseline for Epworth Sleepiness Total Score, Max",[3]; Baseline to Day 28,7
same,"Change from Baseline for Epworth Sleepiness Total Score, Mean",[3]; Baseline to Day 28,−0.2
same,"Change from Baseline for Epworth Sleepiness Total Score, Median",[3]; Baseline to Day 28,0.0
same,"Change from Baseline for Epworth Sleepiness Total Score, Min",[3]; Baseline to Day 28,−14
same,"Epworth Sleepiness Total Score, Max",[3]; Day 28,23
same,"Epworth Sleepiness Total Score, Mean",[3]; Day 28,10.0
same,"Epworth Sleepiness Total Score, Median",[3]; Day 28,9.0
same,"Epworth Sleepiness Total Score, Min",[3]; Day 28,0
same,"TEAE ascites, subjects",subjects with HE [4],11.4%
same,"TEAE diarrhea, subjects",subjects with HE [4],10.7%
same,"TEAE dizziness, subjects",subjects with HE [4],12.9%
same,"TEAE fatigue, subjects",subjects with HE [4],12.1%
same,"TEAE headache, subjects",subjects with HE [4],10%
same,"TEAE nausea, subjects",subjects with HE [4],14.3%
same,"TEAE peripheral edema, subjects",subjects with HE [4],15%
same,subjects with worsening of Conn score by 1 or 2 grades,[5]; 24/266 subjects,9.0%
same,incidence of worsening asterixis grades,"[5]; continuing rifaximin group, 6/70 subjects",8.6%
same,"subjects with 2-grade improvement in asterixis among those entering with scores of 1, 2 or 3","[5]; last visit, 4 subjects of 67",6.0%
same,"subjects with 3-grade improvement in asterixis among those entering with scores of 1, 2 or 3","[5]; last visit, 5 subjects of 67",7.5%
same,"subjects with 2-grade improvement in Conn score among those entering with Conn 1, 2, or 3","[5]; last visit, 7 subjects of 84",8.3%
same,"subjects with 1-grade improvement in Conn score among those entering with Conn 1, 2, or 3","[5]; last visit, 47 subjects of 84",56.0%
same,incidence of worsening asterixis grades,"[5]; new rifaximin group, 12/196 subjects",6.1%
same,subjects experiencing at least 1 TEAE judged to be severe,subjects with HE [6],40.2%
same,subjects with treatment-emergent SAEs,subjects with HE [6],47.4%
same,subjects with HE counted for the safety analyses,subjects with HE [6]; 57 subjects,21.4%
same,incidence of TEAEs considered related to study drug,subjects with HE [6]; continuing rifaximin group,7.1%
same,"TEAE abdominal pain, subjects",subjects with HE [6]; interim analysis,10.5%
same,"TEAE ascites, subjects",subjects with HE [6]; interim analysis,10.5%
same,"TEAE nausea, subjects",subjects with HE [6]; interim analysis,12.8%
same,"TEAE peripheral edema, subjects",subjects with HE [6]; interim analysis,15.8%
same,"TEAE urinary tract infection, subjects",subjects with HE [6]; interim analysis,12.8%
same,subjects with TEAEs,"subjects with HE [6]; interim analysis, 230 subjects",86.5%
same,incidence of TEAEs considered related to study drug,subjects with HE [6]; new rifaximin group,7.7%
same,patients with Conn scores of 3 or 4 at end of treatment period,patients with HE [7],6%
same,hospitalizations,patients with HE [7]; lactulose 30 mL twice daily then rifaximin 400 mg 3 times/day,0.5
same,"efficacy in patients with HE, rifaximin versus neomycin",patients with HE [8],comparable efficacy
same,fraction unbound,in vitro,0.447
